The values that follow come from ChEMBL document CHEMBL3997837, “Potent covalent inhibitors of bacterial urease identified by activity-reactivity profiling” (Bioorg Med Chem Lett, 2017).

Assay [1] can be described thus: Inhibition of Sporosarcina pasteurii CCM 2056 urease assessed as reduction in ammonia production using urea as substrate measured for 120 mins by phenol-hypochlorite method. As to conditions: for pKi: read-out: Ki.
The test system of assay [2] is Sporosarcina pasteurii. The assay is described as follows: Time-dependent Sporosarcina pasteurii CCM 2056 urease assessed as reduction in ammonia production using urea as substrate by phenol-hypochlorite method.
The test system of assay [3] is Sporosarcina pasteurii. The assay is described as follows: Competitive inhibition of Sporosarcina pasteurii CCM 2056 urease assessed as reduction in ammonia production preincubated with enzyme followed by addition of varying levels of urea as substrate measured for 120 mins by Lineweaver-Burk plot analysis.
The test system of assay [4] is Sporosarcina pasteurii. The assay is described as follows: Reversible inhibition of Sporosarcina pasteurii CCM 2056 urease assessed as reduction in ammonia production by measuring recovery of enzyme activity at 10 times IC50 preincubated for 60 mins followed by 100-fold dilution in to PBS containing urea as substrate by Berthelot colorimetric assay relative to control. On the set-up: Activity: scale not given: the % may be the effect or the level left.

Assay [5] is described as follows: Inhibition of Sporosarcina pasteurii CCM 2056 urease assessed as reduction in ammonia production by measuring initial state enzyme-inhibitor complex using urea as substrate measured for 120 mins by phenol-hypochlorite method. As to conditions: for pKi: read-out: Ki.
Assay [6] is described as follows: Inhibition of Sporosarcina pasteurii CCM 2056 urease assessed as reduction in ammonia production by measuring steady state enzyme-inhibitor complex using urea as substrate measured for 120 mins by phenol-hypochlorite method. As to conditions: for pKi: read-out: Ki.

pKi: −log10 of the molar value. Structures can show the parent of a compound that is named as a salt. The source made the active and inactive calls. The calls are words filed in the database; no cut-off is given here.

By pKi is commonly meant the Ki on a negative log10 scale, so that one unit is a factor of ten.

On to `CC#CC(=O)OCC`, for which the pKi in assay [1] was 3.90; in assay [5], 2.90; in assay [6], 3.93. Also, the TDI entry in the assay with Sporosarcina pasteurii [2] was “Active”. In addition, in the assay with Sporosarcina pasteurii [3], the mode of inhibition entry is “Active”. Moreover, the Activity with Sporosarcina pasteurii [4] worked out at 47.3%.

As to `O=C(O)/C=C/C1=CC(=O)CCC1`, the negative logarithm of the Ki (pKi) in assay [1] is 4.75; in assay [5] it was 3.72; in assay [6] it was 4.71. In addition, the TDI entry in the assay with Sporosarcina pasteurii [2] is “Active”. Besides, the mode of inhibition result with Sporosarcina pasteurii [3] was “Active”. Besides, the Activity in the assay with Sporosarcina pasteurii [4] was found to be 38.1%.

For `CCOC(=O)/C=C/C(=O)OCC`, the pKi in assay [1] is 4.95; in assay [5], 4.66; in assay [6] it was 4.92. Moreover, the TDI result with Sporosarcina pasteurii [2] was “Active”. The mode of inhibition entry in the assay with Sporosarcina pasteurii [3] was “Active”. For the same molecule, in the assay with Sporosarcina pasteurii [4], the Activity amounted to 34.3%.

In the case of `O=C(O)/C=C(\CC(=O)O)C(=O)O` [ACONITIC ACID], the pKi in assay [1] is 5.21. For the same molecule, the TDI result in the assay on Sporosarcina pasteurii [2] is “Active”. In addition, the mode of inhibition entry in the assay with Sporosarcina pasteurii [3] was “Active”. The Activity in the assay with Sporosarcina pasteurii [4] was 33.8%.

Consider `O=C(O)C#Cc1ccccc1`, for which the pKi is 4.43 in assay [1], 3.23 in assay [5] and 4.39 in assay [6]. Moreover, the TDI result in the assay on Sporosarcina pasteurii [2] was “Active”. Moreover, the mode of inhibition entry with Sporosarcina pasteurii [3] was “Active”. In addition, in the assay on Sporosarcina pasteurii [4], the Activity came out at 39.2%.

As for `C=C=CC(=O)OCC`, the negative-log Ki (pKi) is 5.60 in assay [1], 3.79 in assay [5] and 5.64 in assay [6]. Besides, the TDI entry in the assay with Sporosarcina pasteurii [2] was “Active”. In addition, the mode of inhibition result in the assay with Sporosarcina pasteurii [3] was “Active”. For the same molecule, the Activity in the assay on Sporosarcina pasteurii [4] came to 29.1%.

Consider `CCCCOC(=O)/C=C/C(=O)OCCCC`, for which the negative-log Ki (pKi) in assay [1] is 4.27; in assay [5], 3.07; in assay [6] it was 4.18. The TDI result in the assay with Sporosarcina pasteurii [2] is “Active”. In addition, in the assay with Sporosarcina pasteurii [3], the mode of inhibition entry is “Active”. Moreover, the Activity with Sporosarcina pasteurii [4] was determined as 45.1%.

`C#CC(=O)O` [PROPIOLIC ACID]: the results for the pKi in assay [1], in assay [5] and in assay [6] were 4.35, 3.14 and 4.36, respectively. In addition, the TDI entry in the assay on Sporosarcina pasteurii [2] was “Active”. Further, the mode of inhibition result with Sporosarcina pasteurii [3] was “Active”. In addition, the Activity in the assay with Sporosarcina pasteurii [4] came out at 40.9%.

With `CCOC(=O)C#CC(=O)OCC`, the pKi in assay [1] was 7.99; in assay [5], 6.07; in assay [6], 8.13. Also, the TDI result with Sporosarcina pasteurii [2] was “Active”. For the same molecule, the mode of inhibition result in the assay with Sporosarcina pasteurii [3] was “Active”. The Activity in the assay with Sporosarcina pasteurii [4] was found to be 8.8%.

For the molecule `C=C=CC(=O)NCc1ccccc1`, the Ki result in assay [1], in assay [5] and in assay [6] was “Not Active” in each case. The inhibition result with Sporosarcina pasteurii [4] is “inactive”.

Regarding `Cc1ccc(/C=C/C(=O)O)cc1`, the values for the negative-log Ki (pKi) in assay [1], in assay [5] and in assay [6] were 4.47, 3.20 and 4.49, respectively. For the same molecule, in the assay with Sporosarcina pasteurii [2], the TDI result is “Active”. The mode of inhibition result with Sporosarcina pasteurii [3] was “Active”. The Activity with Sporosarcina pasteurii [4] worked out at 39.9%.

On to `O=C1C=C(/C=C/C(=O)c2ccccc2)CCC1`, for which the pKi is 6.23 in assay [1], 4.57 in assay [5] and 6.31 in assay [6]. In the assay on Sporosarcina pasteurii [2], the TDI entry is “Active”. Also, the mode of inhibition result in the assay with Sporosarcina pasteurii [3] was “Active”. The Activity in the assay on Sporosarcina pasteurii [4] was determined as 21.5%.

For the molecule `CCC(C)OC(=O)/C=C/C(=O)OC(C)CC` (stereo not given), the values for the pKi in assay [1], in assay [5] and in assay [6] were 4.19, 3.04 and 4.23, respectively. The TDI entry in the assay with Sporosarcina pasteurii [2] is “Active”. Further, in the assay with Sporosarcina pasteurii [3], the mode of inhibition entry was “Active”. Further, the Activity with Sporosarcina pasteurii [4] stood at 46%.

Consider `CCOC(=O)/C=C/c1ccc([N+](=O)[O-])cc1`, for which the Ki result in assay [1], in assay [5] and in assay [6] was “Not Active” throughout. For the same molecule, in the assay with Sporosarcina pasteurii [3], the mode of inhibition result is “Active”. Further, the inhibition result with Sporosarcina pasteurii [4] was “inactive”.

As for `CC(C)OC(=O)/C=C/C(=O)OC(C)C`, the negative logarithm of the Ki (pKi) in assay [1] is 4.37; in assay [5], 3.17; in assay [6], 4.41. Further, the TDI entry in the assay on Sporosarcina pasteurii [2] was “Active”. Further, in the assay on Sporosarcina pasteurii [3], the mode of inhibition result was “Active”. Besides, in the assay on Sporosarcina pasteurii [4], the Activity was 41.2%.

In the case of `O=C(O)/C=C\C(=O)O` [MALEIC ACID], the Ki result in assay [1], in assay [5] and in assay [6] was “Not Active” each time. For the same molecule, the inhibition entry in the assay on Sporosarcina pasteurii [4] is “inactive”.

Regarding `CCOC(=O)/C=C/C(=O)OC(C)(C)C`, the negative-log Ki (pKi) in assay [1] is 4.66; in assay [5], 3.37; in assay [6], 4.59. The TDI result in the assay with Sporosarcina pasteurii [2] was “Active”. The mode of inhibition entry in the assay with Sporosarcina pasteurii [3] was “Active”. In the assay on Sporosarcina pasteurii [4], the Activity was determined as 39.3%.

As for `COC(=O)/C=C(\CC(=O)OC)C(=O)OC`, the negative-log Ki (pKi) in assay [1] is 5.28. Moreover, in the assay with Sporosarcina pasteurii [2], the TDI entry is “Active”. In addition, the mode of inhibition result with Sporosarcina pasteurii [3] was “Active”. For the same molecule, the Activity in the assay on Sporosarcina pasteurii [4] was found to be 31.5%.

As to `CCOC(=O)/C=C/c1ccc(C)cc1`, the Ki result in assay [1], in assay [5] and in assay [6] was “Not Active” each time. Moreover, the inhibition result in the assay with Sporosarcina pasteurii [4] was “inactive”.

For the molecule `COC(=O)/C=C\C(=O)OC` [DIMETHYL MALEATE], the Ki entry in assay [1], in assay [5] and in assay [6] was “Not Active” throughout. The inhibition entry in the assay with Sporosarcina pasteurii [4] is “inactive”.

With `CCOC(=O)/C=C/C(=O)C(=O)OCC`, the figures for the negative-log Ki (pKi) in assay [1], in assay [5] and in assay [6] were 7.03, 4.48 and 6.95, respectively. Also, the TDI entry with Sporosarcina pasteurii [2] was “Active”. Besides, the mode of inhibition entry in the assay on Sporosarcina pasteurii [3] is “Active”. Moreover, the Activity with Sporosarcina pasteurii [4] was found to be 8.9%.

Turning to `CCOC(=O)C#Cc1ccccc1`, the pKi is 4.28 in assay [1], 3.09 in assay [5] and 4.33 in assay [6]. In the assay on Sporosarcina pasteurii [2], the TDI result is “Active”. For the same molecule, the mode of inhibition result in the assay on Sporosarcina pasteurii [3] was “Active”. Moreover, the Activity in the assay with Sporosarcina pasteurii [4] was found to be 44.7%.

For the molecule `CCOC(=O)/C=C/C(=O)O` [ETHYL FUMARATE], the pKi is 4.28 in assay [1], 3.05 in assay [5] and 4.23 in assay [6]. For the same molecule, in the assay with Sporosarcina pasteurii [2], the TDI result is “Active”. For the same molecule, the mode of inhibition entry in the assay on Sporosarcina pasteurii [3] was “Active”. Also, the Activity in the assay on Sporosarcina pasteurii [4] was found to be 45.6%.

Take `N#C/C=C/C1=CC(=O)CCC1`: the negative-log Ki (pKi) in assay [1] is 6.11; in assay [5] it was 4.26; in assay [6] it was 6.03. In addition, in the assay with Sporosarcina pasteurii [2], the TDI result was “Active”. In addition, the mode of inhibition result in the assay with Sporosarcina pasteurii [3] is “Active”. Further, in the assay on Sporosarcina pasteurii [4], the Activity was found to be 27.2%.

Turning to `CC#CC(=O)O`, the pKi is 3.96 in assay [1], 2.95 in assay [5] and 4.01 in assay [6]. Further, the TDI result in the assay with Sporosarcina pasteurii [2] is “Active”. For the same molecule, in the assay with Sporosarcina pasteurii [3], the mode of inhibition entry was “Active”. In the assay on Sporosarcina pasteurii [4], the Activity was found to be 47.4%.

In the case of `C#CC(=O)OC`, the pKi in assay [1] is 4.34; in assay [5], 3.09; in assay [6], 4.30. Besides, the TDI result with Sporosarcina pasteurii [2] was “Active”. Besides, in the assay on Sporosarcina pasteurii [3], the mode of inhibition result was “Active”. Further, the Activity with Sporosarcina pasteurii [4] was 41.5%.

In the case of `O=C(O)/C=C/c1ccc([N+](=O)[O-])cc1`, the pKi is 4.92 in assay [1], 3.49 in assay [5] and 4.80 in assay [6]. Moreover, the TDI result with Sporosarcina pasteurii [2] is “Active”. Also, in the assay on Sporosarcina pasteurii [3], the mode of inhibition entry was “Active”. In addition, the Activity in the assay on Sporosarcina pasteurii [4] was 35.8%.

For `CC(=O)/C=C/C1=CC(=O)CCC1`, the negative logarithm of the Ki (pKi) in assay [1] was 4.67; in assay [5], 3.69; in assay [6] it was 4.67. The TDI entry with Sporosarcina pasteurii [2] is “Active”. Moreover, the mode of inhibition result in the assay with Sporosarcina pasteurii [3] is “Active”. Also, the Activity with Sporosarcina pasteurii [4] is 38.8%.
